Reference: PubChem BioAssay (NCI)
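GI50 is the concentration that inhibits growth by half. TGI: total growth inhibition.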

How the values were obtained:
Test in all cases: DTP human tumour cell line panel, 384-well format
[1] = tested on: 786-0 renal
[2] = tested on: A498 renal
[3] = tested on: A549 NSCLC
[4] = tested on: ACHN renal
[5] = tested on: CAKI-1 renal
[6] = tested on: CCRF-CEM leukemia
[7] = tested on: COLO 205 colon
[8] = tested on: DU-145 prostate
[9] = tested on: EKVX NSCLC
[10] = tested on: HCC-2998 colon
[11] = tested on: HCT-15 colon
[12] = tested on: HL-60(TB) leukemia
[13] = tested on: HOP-92 NSCLC
[14] = tested on: HS 578T breast
[15] = tested on: HT29 colon
[16] = tested on: IGROV1 ovarian
[17] = tested on: K-562 leukemia
[18] = tested on: KM12 colon
[19] = tested on: LOX IMVI melanoma
[20] = tested on: M14 melanoma
[21] = tested on: MCF7 breast
[22] = tested on: MDA-MB-231 breast
[23] = tested on: MDA-MB-435 melanoma
[24] = tested on: MDA-MB-468 breast
[25] = tested on: MOLT-4 leukemia
[26] = tested on: NCI-H226 lung
[27] = tested on: NCI-H23 lung
[28] = tested on: NCI-H322M lung
[29] = tested on: NCI-H460 NSCLC
[30] = tested on: NCI-H522 lung
[31] = tested on: NCI/ADR-RES ovarian
[32] = tested on: OVCAR-4 ovarian
[33] = tested on: PC-3 prostate
[34] = tested on: RPMI-8226 leukemia
[35] = tested on: SF-268 CNS
[36] = tested on: SF-539 CNS
[37] = tested on: SK-MEL-28 melanoma
[38] = tested on: SK-MEL-5 melanoma
[39] = tested on: SN12C renal
[40] = tested on: SNB-19 CNS
[41] = tested on: SNB-75 CNS
[42] = tested on: SR leukemia
[43] = tested on: T-47D breast
[44] = tested on: TK-10 renal
[45] = tested on: UACC-257 melanoma
[46] = tested on: UO-31 renal
[47] = tested on: HOP-62 NSCLC
[48] = tested on: OVCAR-5 ovarian
[49] = tested on: SK-MEL-2 melanoma
[50] = tested on: UACC-62 melanoma

In the case of `COc1cc(OC)c(F)c(COc2cnc(Nc3cnn(CCO)c3)nc2)c1F`, the GI50 [1] is reported as 0.425 µM, the TGI [1] is reported as > 100 µM and the GI50 [2] is reported as 0.355 µM. For the same compound, the TGI [2] was > 100 µM, the GI50 [3] was 1.27 µM and the TGI [3] was > 100 µM. For the same compound, the GI50 [4] was 1.02 µM, the TGI [4] was > 100 µM and the GI50 [5] was 0.353 µM. For the same compound, the TGI [5] was 1.65 µM, the GI50 [6] was 0.204 µM and the TGI [6] was 0.397 µM. The GI50 [7] was 0.454 µM, the TGI [7] was 3.21 µM and the GI50 [8] was 1.6 µM. For the same compound, the TGI [8] was > 100 µM, the GI50 [9] was 0.828 µM and the TGI [9] was > 100 µM. For the same compound, the GI50 [10] was 0.751 µM, the TGI [10] was > 100 µM and the GI50 [11] was 0.386 µM. For the same compound, the TGI [11] was > 100 µM, the GI50 [12] was 0.14 µM and the TGI [12] was 0.272 µM. For the same compound, the GI50 [13] was 0.747 µM, the TGI [13] was 4.74 µM and the GI50 [14] was 0.226 µM. It also gave a TGI [14] of 0.672 µM, a GI50 [15] of 0.343 µM and a TGI [15] of 1.07 µM. The GI50 [16] was 0.536 µM, the TGI [16] was > 100 µM and the GI50 [17] was 0.264 µM. The TGI [17] was 1.1 µM, the GI50 [18] was 0.327 µM and the TGI [18] was 3.41 µM. It also gave a GI50 [19] of 0.485 µM, a TGI [19] of 3.82 µM and a GI50 [20] of 0.239 µM. For the same compound, the TGI [20] was 0.709 µM, the GI50 [21] was 0.408 µM and the TGI [21] was > 100 µM. The GI50 [22] was 0.657 µM, the TGI [22] was > 100 µM and the GI50 [23] was 0.177 µM. For the same compound, the TGI [23] was 0.411 µM, the GI50 [24] was 0.234 µM and the TGI [24] was 0.514 µM. It also gave a GI50 [25] of 0.187 µM, a TGI [25] of 0.356 µM and a GI50 [26] of 0.26 µM. For the same compound, the TGI [26] was 2.29 µM, the GI50 [27] was 0.494 µM and the TGI [27] was 2.24 µM. The GI50 [28] was 1.79 µM, the TGI [28] was > 100 µM and the GI50 [29] was 0.353 µM. The TGI [29] was 1 µM, the GI50 [30] was 0.257 µM and the TGI [30] was 0.658 µM. For the same compound, the GI50 [31] was 0.442 µM, the TGI [31] was 1.83 µM and the GI50 [32] was 8.52 µM. For the same compound, the TGI [32] was > 100 µM, the GI50 [33] was 1.25 µM and the TGI [33] was > 100 µM. For the same compound, the GI50 [34] was 0.307 µM, the TGI [34] was 1.24 µM and the GI50 [35] was 0.491 µM. For the same compound, the TGI [35] was 3.68 µM, the GI50 [36] was 0.34 µM and the TGI [36] was 1.5 µM. The GI50 [37] was 0.741 µM, the TGI [37] was > 100 µM and the GI50 [38] was 0.383 µM. It also gave a TGI [38] of 1.58 µM, a GI50 [39] of 1.18 µM and a TGI [39] of 6.33 µM. For the same compound, the GI50 [40] was 0.681 µM, the TGI [40] was > 100 µM and the GI50 [41] was 0.14 µM. For the same compound, the TGI [41] was 0.467 µM, the GI50 [42] was 0.0411 µM and the TGI [42] was 0.165 µM. For the same compound, the GI50 [43] was 0.81 µM, the TGI [43] was > 100 µM and the GI50 [44] was 0.714 µM. For the same compound, the TGI [44] was > 100 µM, the GI50 [45] was 2.12 µM and the TGI [45] was > 100 µM. The GI50 [46] was 0.844 µM and the TGI [46] was > 100 µM.

In the case of `OCCn1cc(-c2cnc3nnn(Cc4ccc5ncccc5c4)c3n2)cn1`, the GI50 [1] is reported as > 100 µM, the TGI [1] is reported as > 100 µM and the GI50 [4] is reported as > 100 µM. For the same compound, the TGI [4] was > 100 µM, the GI50 [6] was > 100 µM and the TGI [6] was > 100 µM. The GI50 [7] was > 100 µM, the TGI [7] was > 100 µM and the GI50 [8] was > 100 µM. The TGI [8] was > 100 µM, the GI50 [47] was > 100 µM and the TGI [47] was > 100 µM. For the same compound, the GI50 [13] was > 100 µM, the TGI [13] was > 100 µM and the GI50 [16] was > 100 µM. For the same compound, the TGI [16] was > 100 µM, the GI50 [17] was > 100 µM and the TGI [17] was > 100 µM. The GI50 [20] was > 100 µM, the TGI [20] was > 100 µM and the GI50 [21] was > 100 µM. For the same compound, the TGI [21] was > 100 µM, the GI50 [24] was > 100 µM and the TGI [24] was > 100 µM. For the same compound, the GI50 [26] was > 100 µM, the TGI [26] was > 100 µM and the GI50 [27] was > 100 µM. The TGI [27] was > 100 µM, the GI50 [32] was > 100 µM and the TGI [32] was > 100 µM. The GI50 [48] was > 100 µM, the TGI [48] was > 100 µM and the GI50 [49] was > 100 µM. The TGI [49] was > 100 µM, the GI50 [39] was > 100 µM and the TGI [39] was > 100 µM. For the same compound, the GI50 [40] was > 100 µM, the TGI [40] was > 100 µM and the GI50 [44] was > 100 µM. The TGI [44] was > 100 µM, the GI50 [50] was > 100 µM and the TGI [50] was > 100 µM. For the same compound, the GI50 [46] was > 100 µM and the TGI [46] was > 100 µM.
